Source: patent publication US20260240847A1, “COMPOUNDS WITH ANTI-TUMOR ACTIVITY AGAINST CANCER CELLS BEARING TYROSINE KINASE INHIBITOR RESISTANT EGFR MUTATIONS” (BOARD OF REGENTS, THE UNIVERSITY OF TEXAS SYSTEM, priority 2019, published 2026)

Legend:
Test in all cases: Ba/F3 cell viability, Cell Titer Glo
EGFR E709K L858R = EGFR E709K L858R (Homo sapiens, UniProt P00533, E709K/L858R); conditions: read-out: IC50 Values; Ba/F3 cells expressing EGFR E709K L858R, 72 hours
Experimental: (§1) Cell viability was determined by the Cell Titer Glo assay.
(§2) Briefly, stable Ba/F3 cell lines were generated by retroviral transduction of Ba/F3 cell line for 12 hours. […] Three days after transduction, 2 μg/ml puromycin (Invitrogen) was added to the RPMI media. Cell lines were then grown in the absence of IL-3 for two weeks and cell viability was assessed every three days using the Cell Titer Glo assay (Progema).
(§3) Briefly, 2000-3000 cells per well were plated in 384-well plates (Greiner Bio-One) in technical triplicate. Cells were treated with seven different concentrations of tyrosine kinase inhibitors or vehicle alone at a final volume of 40 μL per well. After 3 days, 11 μL of Cell Titer Glo was added to each well. Plates were shaken for 15 minutes, and bioluminescence was determined using a FLUOstar OPTIMA multi-mode micro-plate reader (BMG LABTECH). Bioluminescence values were normalized to DMSO treated cells, and normalized values were plotted in GraphPad Prism using non-linear regression fit to normalized data with a variable slope.

EGFR G719S = EGFR G719S (Homo sapiens, UniProt P00533, G719S); conditions: read-out: IC50 Values; Ba/F3 cells expressing EGFR G719S, 72 hours
Experimental: as §1, §2, §3

EGFR G719A = EGFR G719A (Homo sapiens, UniProt P00533, G719A); conditions: read-out: IC50 Values; Ba/F3 cells expressing EGFR G719A, 72 hours
Experimental: as §1, §3

EGFR G719A/R776C = EGFR G719A/R776C (Homo sapiens, UniProt P00533, G719A/R776C); conditions: read-out: IC50 Values; Ba/F3 cells expressing EGFR G719A/R776C, 72 hours
Experimental: as §1, §3

EGFR T725M = EGFR T725M (Homo sapiens, UniProt P00533, T725M); conditions: read-out: IC50 Values; Ba/F3 cells expressing EGFR T725M, 72 hours
Experimental: as §1, §2, §3

EGFR L747P = EGFR L747P (Homo sapiens, UniProt P00533, L747P); conditions: read-out: IC50 Values; Ba/F3 cells expressing EGFR L747P, 72 hours
Experimental: as §1, §2, §3

EGFR S768dupSVD = EGFR S768dupSVD (Homo sapiens, UniProt P00533, DUP768-770); conditions: read-out: IC50 Values; Ba/F3 cells expressing EGFR S768dupSVD, 72 hours
Sequence of EGFR S768dupSVD (P00533 with tags, fused parts or gaps DUP768-770): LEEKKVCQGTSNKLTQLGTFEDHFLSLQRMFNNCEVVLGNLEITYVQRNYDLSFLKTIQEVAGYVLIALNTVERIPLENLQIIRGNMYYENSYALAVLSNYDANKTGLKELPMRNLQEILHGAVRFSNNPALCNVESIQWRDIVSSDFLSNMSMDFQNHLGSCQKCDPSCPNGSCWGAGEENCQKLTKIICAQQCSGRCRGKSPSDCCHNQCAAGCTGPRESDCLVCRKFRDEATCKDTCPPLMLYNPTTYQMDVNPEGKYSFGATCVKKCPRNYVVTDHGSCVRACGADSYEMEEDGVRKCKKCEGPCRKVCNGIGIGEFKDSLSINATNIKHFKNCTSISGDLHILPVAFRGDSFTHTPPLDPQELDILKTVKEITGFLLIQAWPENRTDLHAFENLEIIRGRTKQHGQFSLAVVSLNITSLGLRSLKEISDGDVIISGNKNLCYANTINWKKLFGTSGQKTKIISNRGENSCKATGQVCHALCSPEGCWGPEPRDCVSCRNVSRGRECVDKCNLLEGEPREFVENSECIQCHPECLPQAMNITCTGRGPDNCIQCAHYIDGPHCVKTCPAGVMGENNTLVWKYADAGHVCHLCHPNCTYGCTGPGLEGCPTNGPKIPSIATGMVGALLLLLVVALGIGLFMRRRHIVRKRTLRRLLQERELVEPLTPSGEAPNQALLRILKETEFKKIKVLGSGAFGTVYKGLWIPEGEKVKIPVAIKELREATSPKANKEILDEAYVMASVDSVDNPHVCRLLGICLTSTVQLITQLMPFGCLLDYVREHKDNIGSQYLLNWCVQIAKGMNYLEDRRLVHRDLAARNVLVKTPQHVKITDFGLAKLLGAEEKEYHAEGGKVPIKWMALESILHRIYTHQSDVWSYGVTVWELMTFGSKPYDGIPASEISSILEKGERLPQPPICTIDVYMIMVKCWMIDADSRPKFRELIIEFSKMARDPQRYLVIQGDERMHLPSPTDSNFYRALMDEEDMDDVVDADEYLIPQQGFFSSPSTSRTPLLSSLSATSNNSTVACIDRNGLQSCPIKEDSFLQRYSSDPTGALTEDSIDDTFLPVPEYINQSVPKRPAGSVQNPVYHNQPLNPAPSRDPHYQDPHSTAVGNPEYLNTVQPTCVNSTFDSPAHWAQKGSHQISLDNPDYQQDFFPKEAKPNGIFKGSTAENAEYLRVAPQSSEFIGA
Experimental: as §1, §2, §3

EGFR V769L = EGFR V769L (Homo sapiens, UniProt P00533, V769L); conditions: read-out: IC50 Values; Ba/F3 cells expressing EGFR V769L, 72 hours
Experimental: as §1, §2, §3

EGFR D770insNPG = EGFR D770insNPG (Homo sapiens, UniProt P00533, INS770NPG); conditions: read-out: IC50 Values; Ba/F3 cells expressing EGFR D770insNPG, 72 hours
Experimental: as §1, §2, §3

EGFR V774M = EGFR V774M (Homo sapiens, UniProt P00533, V774M); conditions: read-out: IC50 Values; Ba/F3 cells expressing EGFR V774M, 72 hours
Sequence of EGFR V774M (P00533 25-1210 V774M): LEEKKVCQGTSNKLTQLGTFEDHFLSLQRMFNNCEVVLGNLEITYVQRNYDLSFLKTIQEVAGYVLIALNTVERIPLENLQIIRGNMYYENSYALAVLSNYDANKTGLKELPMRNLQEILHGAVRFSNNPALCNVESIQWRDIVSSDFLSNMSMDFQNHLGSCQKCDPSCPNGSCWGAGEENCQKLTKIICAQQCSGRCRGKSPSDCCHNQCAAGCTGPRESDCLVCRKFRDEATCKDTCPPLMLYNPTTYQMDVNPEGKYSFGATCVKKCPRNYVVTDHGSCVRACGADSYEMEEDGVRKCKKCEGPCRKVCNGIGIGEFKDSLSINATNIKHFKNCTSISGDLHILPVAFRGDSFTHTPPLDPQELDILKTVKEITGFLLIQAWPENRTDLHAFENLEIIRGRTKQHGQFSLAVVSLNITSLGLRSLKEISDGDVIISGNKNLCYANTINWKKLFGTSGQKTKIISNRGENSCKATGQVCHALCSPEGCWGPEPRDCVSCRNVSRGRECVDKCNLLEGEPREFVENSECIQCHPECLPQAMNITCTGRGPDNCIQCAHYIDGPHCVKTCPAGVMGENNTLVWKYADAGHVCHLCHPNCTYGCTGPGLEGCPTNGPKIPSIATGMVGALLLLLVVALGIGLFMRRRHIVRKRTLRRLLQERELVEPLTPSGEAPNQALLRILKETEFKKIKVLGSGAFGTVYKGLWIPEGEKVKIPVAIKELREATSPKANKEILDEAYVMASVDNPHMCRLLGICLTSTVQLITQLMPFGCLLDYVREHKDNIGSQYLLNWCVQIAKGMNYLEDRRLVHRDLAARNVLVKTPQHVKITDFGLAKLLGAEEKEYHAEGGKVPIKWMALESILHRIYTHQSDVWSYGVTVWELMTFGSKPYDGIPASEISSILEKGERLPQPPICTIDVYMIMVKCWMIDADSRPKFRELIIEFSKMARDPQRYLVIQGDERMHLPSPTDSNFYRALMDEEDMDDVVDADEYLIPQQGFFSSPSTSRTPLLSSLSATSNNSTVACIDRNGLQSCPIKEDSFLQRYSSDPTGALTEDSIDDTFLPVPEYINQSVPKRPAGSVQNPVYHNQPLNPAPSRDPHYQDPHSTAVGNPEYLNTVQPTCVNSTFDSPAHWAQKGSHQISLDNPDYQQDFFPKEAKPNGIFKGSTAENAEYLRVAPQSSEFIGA
Experimental: as §1, §2, §3

EGFR R776H = EGFR R776H (Homo sapiens, UniProt P00533, R776H); conditions: read-out: IC50 Values; Ba/F3 cells expressing EGFR R776H, 72 hours
Experimental: as §1, §2, §3

EGFR L858R S784F = EGFR L858R S784F (Homo sapiens, UniProt P00533, L858R/S784F); conditions: read-out: IC50 Values; Ba/F3 cells expressing EGFR L858R S784F, 72 hours
Experimental: (§4) The transforming capability of the mutations was then evaluated by sustained cell viability following IL-3 deprivation. Activating EGFR mutant Ba/F3 cells were then screened against EGFR TKIs. Cell viability was determined by the Cell Titer Glo assay.
(§5) Ba/F3 cells expressing acquired atypical mutations spanning exons 18-21 were treated with inhibitors for 72 hours. […] Briefly, stable Ba/F3 cell lines were generated by retroviral transduction of Ba/F3 cell line for 12 hours. […] Three days after transduction, 2 μg/ml puromycin (Invitrogen) was added to the RPMI media. Cell lines were then grown in the absence of IL-3 for two weeks and cell viability was assessed every three days using the Cell Titer Glo assay (Progema).
as §3

EGFR L858R/C797S = EGFR L858R/C797S (Homo sapiens, UniProt P00533, C797S/L858R); conditions: read-out: IC50 Values; Ba/F3 cells expressing EGFR L858R/C797S, 72 hours
Experimental: as §4, §5, §3

EGFR L858R/L792H = EGFR L858R/L792H (Homo sapiens, UniProt P00533, L792H/L858R); conditions: read-out: IC50 Values; Ba/F3 cells expressing EGFR L858R/L792H, 72 hours
Experimental: as §4, §5, §3

EGFR L858R T790M L792H = EGFR L858R T790M L792H (Homo sapiens, UniProt P00533, L792H/L858R/T790M); conditions: read-out: IC50 Values; Ba/F3 cells expressing EGFR L858R T790M L792H, 72 hours
Experimental: as §1, §2, §3

EGFR Ex19del/T790M/L792H = EGFR Ex19del/T790M/L792H (Homo sapiens, UniProt P00533, DEL746-750/L792H/T790M); conditions: read-out: IC50 Values; Ba/F3 cells expressing EGFR Ex19del/T790M/L792H, 72 hours
Experimental: as §1, §2, §3

EGFR L858R T790M V843I = EGFR L858R T790M V843I (Homo sapiens, UniProt P00533, L858R/T790M/V843I); conditions: read-out: IC50 Values; Ba/F3 cells expressing EGFR L858R T790M V843I, 72 hours
Experimental: as §1, §2, §3

EGFR L858R/T790M = EGFR L858R/T790M (Homo sapiens, UniProt P00533, L858R/T790M); conditions: read-out: IC50 Values; Ba/F3 cells expressing EGFR L858R/T790M, 72 hours
Experimental: as §1, §2, §3

EGFR G719A T790M = EGFR G719A T790M (Homo sapiens, UniProt P00533, G719A/T790M); conditions: read-out: IC50 Values; Ba/F3 cells expressing EGFR G719A T790M, 72 hours
Experimental: as §1, §3

EGFR Ex19delT790M = EGFR Ex19delT790M (Homo sapiens, UniProt P00533, DEL746-750/T790M); conditions: read-out: IC50 Values; Ba/F3 cells expressing EGFR Ex19delT790M, 72 hours
Sequence of EGFR Ex19delT790M (P00533 with tags, fused parts or gaps DEL746-750/T790M): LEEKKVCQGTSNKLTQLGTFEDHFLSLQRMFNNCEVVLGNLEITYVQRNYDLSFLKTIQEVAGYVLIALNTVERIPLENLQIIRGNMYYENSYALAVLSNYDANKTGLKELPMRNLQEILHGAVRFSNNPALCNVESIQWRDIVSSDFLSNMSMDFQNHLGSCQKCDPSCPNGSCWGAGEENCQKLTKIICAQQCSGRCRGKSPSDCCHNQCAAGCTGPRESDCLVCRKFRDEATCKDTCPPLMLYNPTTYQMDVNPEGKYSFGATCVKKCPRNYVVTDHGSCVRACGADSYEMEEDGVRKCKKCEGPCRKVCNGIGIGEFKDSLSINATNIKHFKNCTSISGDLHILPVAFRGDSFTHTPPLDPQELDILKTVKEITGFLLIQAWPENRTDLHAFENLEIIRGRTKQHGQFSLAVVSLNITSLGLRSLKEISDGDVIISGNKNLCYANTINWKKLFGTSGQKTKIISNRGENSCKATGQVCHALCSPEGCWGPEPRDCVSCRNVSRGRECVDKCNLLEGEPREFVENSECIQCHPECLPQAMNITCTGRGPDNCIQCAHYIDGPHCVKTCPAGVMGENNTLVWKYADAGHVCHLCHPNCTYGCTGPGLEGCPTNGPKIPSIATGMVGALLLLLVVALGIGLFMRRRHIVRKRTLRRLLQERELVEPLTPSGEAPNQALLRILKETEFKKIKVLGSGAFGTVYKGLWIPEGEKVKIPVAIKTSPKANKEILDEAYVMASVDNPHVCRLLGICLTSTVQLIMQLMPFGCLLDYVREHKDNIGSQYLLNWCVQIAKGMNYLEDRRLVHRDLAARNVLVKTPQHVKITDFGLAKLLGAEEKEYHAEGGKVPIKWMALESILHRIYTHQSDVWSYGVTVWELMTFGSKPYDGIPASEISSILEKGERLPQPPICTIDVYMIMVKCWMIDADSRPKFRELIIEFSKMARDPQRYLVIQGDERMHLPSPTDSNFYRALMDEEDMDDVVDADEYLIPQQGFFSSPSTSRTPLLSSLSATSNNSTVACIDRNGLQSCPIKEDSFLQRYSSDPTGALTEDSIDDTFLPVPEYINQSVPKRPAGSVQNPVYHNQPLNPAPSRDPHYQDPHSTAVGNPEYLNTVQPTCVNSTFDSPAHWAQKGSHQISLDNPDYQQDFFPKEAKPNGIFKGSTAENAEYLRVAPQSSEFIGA
Experimental: as §1, §2, §3

Sequence of EGFR E709K L858R (P00533 25-1210 E709K/L858R): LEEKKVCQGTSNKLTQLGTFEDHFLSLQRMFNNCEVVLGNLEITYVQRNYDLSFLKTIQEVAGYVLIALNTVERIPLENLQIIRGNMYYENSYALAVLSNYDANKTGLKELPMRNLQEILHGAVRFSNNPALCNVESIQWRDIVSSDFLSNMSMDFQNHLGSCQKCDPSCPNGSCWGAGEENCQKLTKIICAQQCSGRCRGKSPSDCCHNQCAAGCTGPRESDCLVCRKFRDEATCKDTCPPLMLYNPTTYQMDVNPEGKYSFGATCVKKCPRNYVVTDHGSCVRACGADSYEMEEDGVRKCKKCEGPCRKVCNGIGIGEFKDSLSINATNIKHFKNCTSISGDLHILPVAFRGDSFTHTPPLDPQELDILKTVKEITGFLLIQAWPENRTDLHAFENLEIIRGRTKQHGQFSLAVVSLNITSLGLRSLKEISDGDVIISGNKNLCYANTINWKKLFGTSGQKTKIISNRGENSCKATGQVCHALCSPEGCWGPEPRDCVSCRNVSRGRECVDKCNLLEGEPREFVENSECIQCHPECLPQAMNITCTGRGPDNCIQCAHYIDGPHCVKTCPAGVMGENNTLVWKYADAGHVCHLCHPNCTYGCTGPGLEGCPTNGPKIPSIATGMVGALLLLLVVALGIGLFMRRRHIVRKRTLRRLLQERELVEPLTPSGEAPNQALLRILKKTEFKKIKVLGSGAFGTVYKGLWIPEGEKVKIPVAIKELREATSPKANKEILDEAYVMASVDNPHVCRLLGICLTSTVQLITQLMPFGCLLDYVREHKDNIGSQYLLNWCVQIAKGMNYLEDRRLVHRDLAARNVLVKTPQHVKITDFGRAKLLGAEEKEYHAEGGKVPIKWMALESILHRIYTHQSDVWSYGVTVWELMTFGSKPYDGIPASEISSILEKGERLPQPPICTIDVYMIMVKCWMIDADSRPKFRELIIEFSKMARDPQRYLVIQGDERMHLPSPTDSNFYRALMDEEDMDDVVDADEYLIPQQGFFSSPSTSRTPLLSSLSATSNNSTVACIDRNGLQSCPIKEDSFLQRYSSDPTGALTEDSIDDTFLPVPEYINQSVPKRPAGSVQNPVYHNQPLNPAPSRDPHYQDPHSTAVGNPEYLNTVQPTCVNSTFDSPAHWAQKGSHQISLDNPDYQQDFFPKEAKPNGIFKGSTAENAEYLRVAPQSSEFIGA

C=CC(=O)N1CC[C@@H](Oc2nc(Nc3ccc(N4CCC(N5CCN(C)CC5)CC4)cc3)c(C(N)=O)nc2CC)C1 [Naquotinib]
IC50 (EGFR E709K L858R): 11 nM | IC50 (EGFR G719S): 36.7 nM | IC50 (EGFR G719A): 18.1 nM | IC50 (EGFR G719A/R776C): 39 nM | IC50 (EGFR T725M): 77.6 nM | IC50 (EGFR L747P): 472 nM | IC50 (EGFR S768dupSVD): 153 nM | IC50 (EGFR V769L): 219 nM | IC50 (EGFR D770insNPG): 175 nM | IC50 (EGFR V774M): 38.5 nM | IC50 (EGFR R776H): 68.6 nM | IC50 (EGFR L858R S784F): 354 nM | IC50 (EGFR L858R/C797S): 709 nM | IC50 (EGFR L858R/L792H): 34.3 nM | IC50 (EGFR L858R T790M L792H): 624 nM | IC50 (EGFR Ex19del/T790M/L792H): 4.75 nM | IC50 (EGFR L858R T790M V843I): 2.05 nM | IC50 (EGFR L858R/T790M): 1.88 nM | IC50 (EGFR G719A T790M): 11.7 nM | IC50 (EGFR Ex19delT790M): 1.41 nM
